Measurements from patent publication US20220273659A1, “HETEROCYCLIC COMPOUNDS AS KINASE INHIBITORS” (NUVATION BIO INC., priority 2019, published 2022).
Structures can show the parent of a compound that is named as a salt. Where two headings read alike, the source gives them in different places.

Columns and labels:
CDK4 = target: T1, CDK4 (Homo sapiens, UniProt P11802); experiment: In vitro kinase inhibition IC50, luminescence (ADP Glo), retinoblastoma substrate; type: biochemical; conditions: read-out: CDK4/D1 IC50
T1 construct: purchased Invitrogen PR8064A
Outline: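 Inhibition of CDK4 was quantified by ADP Glo luminescence with retinoblastoma as substrate. Reactions held 5 nM kinase, 1 μM retinoblastoma and 25 μM ATP and ran 2H at room temperature. A Synergy Neo reader took signals 15 min and 45 min after detection reagent, and percent inhibition was fitted to a four-parameter logistic model in XLfit to obtain IC50.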

CDK6 = target: T2, CDK6 (Homo sapiens, UniProt Q00534); experiment: as above; type: biochemical; conditions: read-out: CDK6/D1 IC50
T2 construct: purchased Invitrogen PR8422B
Outline: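 IC50 derived by four-parameter logistic fit of percent inhibition, read as ADP-Glo luminescence. Reactions: 5 nM CDK6, 1 μM retinoblastoma, 25 μM ATP, test compound 0.1–200 nM final, 2 h at room temperature.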

CDK1 (cyclin B) = target: T3, CDK1 (cyclin B) (Homo sapiens, UniProt P06493); experiment: Z'-LYTE kinase assay; type: biochemical
T3 construct: purchased Invitrogen Life Technologies (assay service)
Description: The plates were shaken for 30 seconds, and incubated for 60 minutes at room temperature. […] The plates were read on fluorescence plate reader with Dual emission at 445 nm and 520 nm.
The following equations were used for Z′-LYTE™ Screening Assay Data Analysis.

CDK2 (cyclin A) = target: T4, CDK2 (cyclin A) (Homo sapiens, UniProt P24941); experiment: Z'-LYTE kinase assay; type: biochemical
T4 construct: purchased Invitrogen Life Technologies (assay service)
Outline: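 FRET-based Z′-LYTE read-out using 1.22–10.3 ng CDK2/cyclin A with Ser/Thr 12 peptide (2 μM in the 2× mix) and ATP (31 μM as the 4× solution), in HEPES pH 7.5, MgCl2, EGTA and BRIJ-35, for 60 min at room temperature. After 1 h of development, the 445/520 nm emission was read, and percent inhibition was fitted to a four-parameter logistic curve for IC50.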

FMS kinase = target: T5, FMS kinase (Homo sapiens, UniProt P07333); experiment: LanthaScreen Eu Kinase Binding Assay (ATP, fluorescent-PolyGT substrate); type: biochemical
T5 construct: purchased Invitrogen (Life Technologies)
Outline: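 TR-FRET read (ex 340, em 495 and 520 nm) after EDTA/Tb-labelled antibody stop; IC50 by four-parameter logistic fit of percent inhibition. Reaction: 1.25 nM FMS, 10 min compound preincubation (3-fold series), then 1 h at room temperature with 10 μM ATP and 200 nM fluorescent PolyGT.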

PI3Kδ kinase = target: T6, PI3Kδ kinase (Homo sapiens, UniProt O00329); experiment: PI3Kδ kinase assay (ADP-Glo, Reaction Biology); type: biochemical
T6 construct: purchased Reaction Biology Corporation (assay service)
Outline: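 Kinase in Tris-HCl 40 mM pH 7.5, MgCl2 20 mM, orthovanadate 3 mM, DTT 2 mM, 0.05% CHAPS, 1% DMSO, preincubated 10 min at room temperature with compound (about 0.5 nM–100 μM). ATP started a 30-min reaction at 30 °C. ADP-Glo luminescence converted to μM ADP via standard curve; IC50 from nonlinear regression.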

[1] = test system: MCF-7 breast adenocarcinoma cells; experiment: Cancer cell proliferation assay, single agent (cell viability); type: cell-based; conditions: Homo sapiens, MCF7, Table 4; Rb positive; treatment 144 Hr with medium change at 72 Hr; Cell Titer-Glo or resazurin
Outline: (§1)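 Viability read by resazurin or CellTiter-Glo after 24 h treatment (BT-549) or 144 h with a 72 h medium change (MCF-7, DU4475). Compounds tested at 7–9 concentrations, e.g. 1.1 nM–10 μM, added the day after seeding; IC50 by nonlinear sigmoidal regression.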

[2] = test system: DU4475 breast carcinoma cells; experiment: as above; type: cell-based; conditions: Homo sapiens, DU-4475; Table 4; Rb negative; treatment 144 Hr with medium change at 72 Hr; Cell Titer-Glo or resazurin
Outline: as §1

T6 sequence (O00329 whole entry): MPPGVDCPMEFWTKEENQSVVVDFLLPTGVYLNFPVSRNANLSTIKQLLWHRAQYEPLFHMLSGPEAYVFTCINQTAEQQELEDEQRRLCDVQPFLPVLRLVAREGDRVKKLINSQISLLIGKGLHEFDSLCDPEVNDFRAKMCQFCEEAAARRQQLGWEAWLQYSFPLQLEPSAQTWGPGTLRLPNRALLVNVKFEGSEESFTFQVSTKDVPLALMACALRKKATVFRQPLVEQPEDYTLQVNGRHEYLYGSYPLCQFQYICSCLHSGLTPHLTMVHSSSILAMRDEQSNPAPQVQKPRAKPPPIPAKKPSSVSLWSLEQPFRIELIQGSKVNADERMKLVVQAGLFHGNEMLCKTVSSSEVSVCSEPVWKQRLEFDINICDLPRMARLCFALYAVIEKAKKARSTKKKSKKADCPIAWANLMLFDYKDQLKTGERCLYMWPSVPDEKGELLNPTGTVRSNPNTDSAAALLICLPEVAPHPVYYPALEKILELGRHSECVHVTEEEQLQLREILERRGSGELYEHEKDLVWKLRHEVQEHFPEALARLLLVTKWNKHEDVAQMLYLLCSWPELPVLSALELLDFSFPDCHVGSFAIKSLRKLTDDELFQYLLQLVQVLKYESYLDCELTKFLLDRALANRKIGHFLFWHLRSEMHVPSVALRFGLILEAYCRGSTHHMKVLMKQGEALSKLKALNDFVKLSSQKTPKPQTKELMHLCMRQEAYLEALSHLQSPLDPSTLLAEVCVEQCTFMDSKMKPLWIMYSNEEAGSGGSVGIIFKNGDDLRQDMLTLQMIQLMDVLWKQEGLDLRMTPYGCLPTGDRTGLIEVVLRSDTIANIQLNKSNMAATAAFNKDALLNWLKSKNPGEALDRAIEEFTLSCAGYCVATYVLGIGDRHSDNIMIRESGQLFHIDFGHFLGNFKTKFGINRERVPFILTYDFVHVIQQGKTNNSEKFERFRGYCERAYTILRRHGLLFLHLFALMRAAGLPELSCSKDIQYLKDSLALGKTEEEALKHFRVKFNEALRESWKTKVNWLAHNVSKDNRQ
T6 sequence (P27986 whole entry partner): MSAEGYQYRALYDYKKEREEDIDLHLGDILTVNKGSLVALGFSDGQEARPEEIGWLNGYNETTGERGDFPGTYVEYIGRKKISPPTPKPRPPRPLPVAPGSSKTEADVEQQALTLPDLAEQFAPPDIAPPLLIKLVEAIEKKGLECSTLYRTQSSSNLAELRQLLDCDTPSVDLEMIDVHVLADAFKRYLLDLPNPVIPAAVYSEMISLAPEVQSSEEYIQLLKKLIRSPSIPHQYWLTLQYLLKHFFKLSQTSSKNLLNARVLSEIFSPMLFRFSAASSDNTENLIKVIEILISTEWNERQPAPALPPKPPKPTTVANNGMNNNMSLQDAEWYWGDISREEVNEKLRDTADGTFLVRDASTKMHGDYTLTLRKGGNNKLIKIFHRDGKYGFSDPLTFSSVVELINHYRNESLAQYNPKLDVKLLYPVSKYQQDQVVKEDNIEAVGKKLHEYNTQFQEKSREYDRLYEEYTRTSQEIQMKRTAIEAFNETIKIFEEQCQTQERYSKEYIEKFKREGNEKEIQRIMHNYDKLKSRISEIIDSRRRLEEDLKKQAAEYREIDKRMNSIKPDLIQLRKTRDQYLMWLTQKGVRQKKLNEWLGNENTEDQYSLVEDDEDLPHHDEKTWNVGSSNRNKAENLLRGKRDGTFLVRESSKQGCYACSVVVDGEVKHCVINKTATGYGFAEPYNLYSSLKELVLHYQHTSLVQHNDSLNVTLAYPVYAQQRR
T5 sequence (P07333 20-972): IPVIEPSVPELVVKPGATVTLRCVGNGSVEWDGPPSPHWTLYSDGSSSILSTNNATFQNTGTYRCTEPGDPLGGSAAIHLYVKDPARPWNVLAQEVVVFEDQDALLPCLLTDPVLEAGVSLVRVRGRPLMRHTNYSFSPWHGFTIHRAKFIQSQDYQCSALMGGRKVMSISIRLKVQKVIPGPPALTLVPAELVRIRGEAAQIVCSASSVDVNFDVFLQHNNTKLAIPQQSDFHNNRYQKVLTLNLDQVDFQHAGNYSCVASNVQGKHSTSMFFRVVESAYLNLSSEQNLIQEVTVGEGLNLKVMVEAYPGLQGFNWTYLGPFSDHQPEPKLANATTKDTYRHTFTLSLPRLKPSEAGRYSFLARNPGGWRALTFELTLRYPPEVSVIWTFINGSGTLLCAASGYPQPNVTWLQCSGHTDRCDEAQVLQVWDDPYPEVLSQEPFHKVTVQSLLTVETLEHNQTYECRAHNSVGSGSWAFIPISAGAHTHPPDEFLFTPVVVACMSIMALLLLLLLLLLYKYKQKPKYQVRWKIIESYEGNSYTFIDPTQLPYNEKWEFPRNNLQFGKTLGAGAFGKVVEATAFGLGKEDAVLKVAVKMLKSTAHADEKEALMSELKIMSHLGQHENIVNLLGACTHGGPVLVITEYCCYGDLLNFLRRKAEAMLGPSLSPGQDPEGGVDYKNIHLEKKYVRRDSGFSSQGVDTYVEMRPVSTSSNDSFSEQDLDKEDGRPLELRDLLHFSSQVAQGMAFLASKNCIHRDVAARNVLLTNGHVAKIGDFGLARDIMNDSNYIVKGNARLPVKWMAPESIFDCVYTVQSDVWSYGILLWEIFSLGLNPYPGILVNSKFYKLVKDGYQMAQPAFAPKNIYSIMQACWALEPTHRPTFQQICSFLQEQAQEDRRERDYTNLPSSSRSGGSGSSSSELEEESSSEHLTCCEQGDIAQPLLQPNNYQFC
T2 sequence (Q00534 whole entry): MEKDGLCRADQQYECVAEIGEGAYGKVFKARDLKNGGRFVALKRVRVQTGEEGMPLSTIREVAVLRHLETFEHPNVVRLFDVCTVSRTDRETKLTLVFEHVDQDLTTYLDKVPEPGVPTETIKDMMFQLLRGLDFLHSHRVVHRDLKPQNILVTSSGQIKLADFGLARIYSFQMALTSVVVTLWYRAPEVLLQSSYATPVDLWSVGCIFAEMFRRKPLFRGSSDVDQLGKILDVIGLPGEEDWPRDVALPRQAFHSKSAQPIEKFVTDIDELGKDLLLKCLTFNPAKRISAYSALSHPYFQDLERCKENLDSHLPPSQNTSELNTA
T2 sequence (P24385 whole entry partner): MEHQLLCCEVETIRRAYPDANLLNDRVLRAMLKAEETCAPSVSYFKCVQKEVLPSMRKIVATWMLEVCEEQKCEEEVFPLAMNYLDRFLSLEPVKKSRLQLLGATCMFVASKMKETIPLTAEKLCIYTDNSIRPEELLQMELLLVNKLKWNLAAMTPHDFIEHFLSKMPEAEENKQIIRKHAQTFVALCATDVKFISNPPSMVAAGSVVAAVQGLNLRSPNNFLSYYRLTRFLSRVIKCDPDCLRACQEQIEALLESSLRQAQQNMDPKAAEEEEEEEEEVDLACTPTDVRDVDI
T1 sequence (P11802 whole entry): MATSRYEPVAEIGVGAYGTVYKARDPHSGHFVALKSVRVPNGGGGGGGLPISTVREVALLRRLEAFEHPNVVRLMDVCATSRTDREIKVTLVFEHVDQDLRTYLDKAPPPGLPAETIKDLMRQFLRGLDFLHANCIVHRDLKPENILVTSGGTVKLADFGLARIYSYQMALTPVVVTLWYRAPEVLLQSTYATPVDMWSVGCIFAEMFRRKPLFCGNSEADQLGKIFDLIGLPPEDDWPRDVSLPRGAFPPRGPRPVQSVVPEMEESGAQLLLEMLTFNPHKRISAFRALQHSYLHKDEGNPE
T1 sequence (P24385 whole entry partner): as the sequence (P24385 whole entry partner) above
T3 sequence (P06493 whole entry): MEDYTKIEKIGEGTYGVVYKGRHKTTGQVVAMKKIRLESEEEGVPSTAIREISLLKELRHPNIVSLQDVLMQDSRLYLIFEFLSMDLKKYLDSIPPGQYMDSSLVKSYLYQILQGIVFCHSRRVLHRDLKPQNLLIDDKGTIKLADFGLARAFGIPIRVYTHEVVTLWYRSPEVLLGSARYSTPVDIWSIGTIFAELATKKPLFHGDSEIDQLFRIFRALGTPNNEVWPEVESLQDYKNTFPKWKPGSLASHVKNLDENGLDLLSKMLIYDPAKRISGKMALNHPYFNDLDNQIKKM
T3 sequence (P14635 whole entry partner): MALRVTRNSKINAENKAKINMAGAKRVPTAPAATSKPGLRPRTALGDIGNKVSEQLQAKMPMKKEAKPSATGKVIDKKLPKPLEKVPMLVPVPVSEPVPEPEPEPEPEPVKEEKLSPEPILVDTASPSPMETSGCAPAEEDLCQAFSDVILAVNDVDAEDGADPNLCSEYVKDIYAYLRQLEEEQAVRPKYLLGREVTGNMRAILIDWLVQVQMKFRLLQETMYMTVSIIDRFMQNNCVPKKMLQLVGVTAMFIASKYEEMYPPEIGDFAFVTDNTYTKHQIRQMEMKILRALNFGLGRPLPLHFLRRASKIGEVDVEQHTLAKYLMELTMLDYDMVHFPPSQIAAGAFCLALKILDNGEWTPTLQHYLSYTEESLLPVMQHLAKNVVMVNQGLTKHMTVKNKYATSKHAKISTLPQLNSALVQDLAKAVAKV

Compound | IC50 (CDK4) [nM] | IC50 (CDK6) [nM] | IC50 (CDK1 (cyclin B); read-out: CDK1/B IC50) [nM] | IC50 (CDK2 (cyclin A)) [nM] | IC50 (FMS kinase) [nM] | IC50 (PI3Kδ kinase) [nM] | IC50 [1] [nM] | IC50 [2] [nM] | IC50 (CDK1 (cyclin B)) [nM]
N#Cc1cc2cnc(Nc3ccc4c(c3)C(=O)NCC4)nc2n(C2CCCC2)c1=O [Compound No. 6, 8-cyclopentyl-7-oxo-2-((1-oxo-1,2,3,4-tetrahydroisoquinolin-7-yl)amino)-7,8-dihydropyrido[2,3-d]pyrimidine-6-carbonitrile] | 8 | 2 | > 4650 | 873 | < 1 | 163 | 1160 |  | 
CN(C)C1CCc2ccc(Nc3ncc4cc(C#N)c(=O)n(C5CCCC5)c4n3)cc2C1 (stereo not drawn) [Compound No. 48, 8-cyclopentyl-2-((7-(dimethylamino)-5,6,7,8-tetrahydronaphthalen-2-yl)amino)-7-oxo-7,8-dihydropyrido[2,3-d]pyrimidine-6-carbonitrile] | 14 | 6 | 488 | 140 | 3 | 945 | 945 |  | 
CN1CCN(c2ccc(Nc3cc4c(cn3)cc(C#N)c(=O)n4C3CCCC3)cc2)CC1 [Compound No. 87, 1-cyclopentyl-7-((4-(4-methylpiperazin-1-yl)phenyl)amino)-2-oxo-1,2-dihydro-1,6-naphthyridine-3-carbonitrile] | 58 | 21 | > 5000 | > 3640 |  | 549 |  | 6700 | 
CN1CCC(c2ccc(Nc3cc4c(cn3)cc(C#N)c(=O)n4C3CCCC3)cc2)CC1 [Compound No. 89, 1-cyclopentyl-7-((4-(1-methylpiperidin-4-yl)phenyl)amino)-2-oxo-1,2-dihydro-1,6-naphthyridine-3-carbonitrile] | 20 | 10 | > 5000 | 874 |  | 751 |  | 5200 | 
N#Cc1cc2cnc(Nc3ccc4c(c3)CCNC4)cc2n(C2CCCC2)c1=O [Compound No. 90, 1-cyclopentyl-2-oxo-7-((1,2,3,4-tetrahydroisoquinolin-6-yl)amino)-1,2-dihydro-1,6-naphthyridine-3-carbonitrile] | 132 | 115 | > 5000 | 619 |  | 4940 |  | 4900 | 
N#Cc1cc2cnc(Nc3ccc4c(c3)CCNC4)nc2n(C2CCC2)c1=O [Compound No. 91, 8-cyclobutyl-7-oxo-2-((1,2,3,4-tetrahydroisoquinolin-6-yl)amino)-7,8-dihydropyrido[2,3-d]pyrimidine-6-carbonitrile hydrochloride] | 84 | 28 | 913 | 79 |  | 705 |  | 510 | 
CC1(C)NCCc2cc(Nc3ncc4cc(C#N)c(=O)n(C5CCCC5)c4n3)ccc21 [Compound No. 92, 8-cyclopentyl-2-((1,1-dimethyl-1,2,3,4-tetrahydroisoquinolin-6-yl)amino)-7-oxo-7,8-dihydropyrido[2,3-d]pyrimidine-6-carbonitrile] | 15 | 6 | 118 | 16 |  | 725 |  | 420 | 
N#Cc1cc2cnc(Nc3ccc4c(c3)CNCC4)cc2n(C2CCCC2)c1=O [Compound No. 95, 1-cyclopentyl-2-oxo-7-((1,2,3,4-tetrahydroisoquinolin-7-yl)amino)-1,2-dihydro-1,6-naphthyridine-3-carbonitrile] | > 200 | > 184 | > 5000 | 2040 |  | 4700 | 3580 | 1500 | 
N#Cc1cc2cnc(Nc3ccc4c(c3)CCNC4)nc2n(C2COCC2O)c1=O (stereo not drawn) [Compound No. 101, 8-(4-hydroxytetrahydrofuran-3-yl)-7-oxo-2-((1,2,3,4-tetrahydroisoquinolin-6-yl)amino)-7,8-dihydropyrido[2,3-d]pyrimidine-6-carbonitrile] | > 200 | > 200 | > 5000 | 1740 | 55 | 7770 | > 30000 | > 30000 | 
N#Cc1cc2ccc(Nc3ccc4c(c3)CNCC4)nc2n(C2CCCC2)c1=O [Compound No. 326, 1-cyclopentyl-2-oxo-7-((1,2,3,4-tetrahydroisoquinolin-7-yl)amino)-1,2-dihydro-1,8-naphthyridine-3-carbonitrile] | > 200 | > 200 | > 5000 | > 5000 |  | > 50000 | 3520 | 4240 | 
CS(=O)(=O)N1CC[C@@H](Nc2ncc3cc(C#N)c(=O)n(C4CCCC4)c3n2)[C@H](F)C1 [Compound No. 362, 8-cyclopentyl-2-((3R,4R)-3-fluoro-1-(methylsulfonyl)piperidin-4-ylamino)-7-oxo-7,8-dihydropyrido[2,3-d]pyrimidine-6-carbonitrile] | 6 | 15 |  | 82 | 90 |  | 765 | 2680 | 1280

Next, values leading:

IC50 (CDK4) [nM] | IC50 (CDK6) [nM] | IC50 (CDK1 (cyclin B); read-out: CDK1/B IC50) [nM] | IC50 (CDK2 (cyclin A)) [nM] | IC50 (FMS kinase) [nM] | IC50 (PI3Kδ kinase) [nM] | IC50 [1] [nM] | IC50 [2] [nM] | IC50 (CDK1 (cyclin B)) [nM] | Compound
34 | 12 | > 5000 | 1100 |  | 905 |  | 1560 |  | N#Cc1cc2cnc(Nc3ccc(N4CCNCC4)cc3)cc2n(C2CCCC2)c1=O [Compound No. 88, 1-cyclopentyl-2-oxo-7-((4-(piperazin-4-yl)phenyl)amino)-1,2-dihydro-1,6-naphthyridine-3-carbonitrile]
> 200 | > 200 | > 5000 | > 5000 |  | > 50000 | 1940 | 485 |  | N#Cc1cc2ccc(Nc3ccc(N4CCNCC4)cc3)nc2n(C2CCCC2)c1=O [Compound No. 94, 1-cyclopentyl-2-oxo-7-((4-(piperazin-1-yl)phenyl)amino)-1,2-dihydro-1,8-naphthyridine-3-carbonitrile]
1.5 | 13 |  | < 1 | > 5000 |  | 255 | 1420 | 598 | Cc1ccc(S(=O)(=O)N2CCC(Nc3ncc4cc(C#N)c(=O)n(C5CCCC5)c4n3)CC2)cc1 [Compound No. 360, 8-cyclopentyl-7-oxo-2-((1-tosylpiperidin-4-yl)amino)-7,8-dihydropyrido[2,3-d]pyrimidine-6-carbonitrile]
1.3 | 7.1 |  | < 1 | 539 |  | 310 | 1040 | 157 | N#Cc1cc2cnc(NC3CCN(S(=O)(=O)c4ccc(F)cc4)CC3)nc2n(C2CCCC2)c1=O [Compound No. 361, 8-cyclopentyl-2-((1-((4-fluorophenyl)sulfonyl)piperidin-4-yl)amino)-7-oxo-7,8-dihydropyrido[2,3-d]pyrimidine-6-carbonitrile]
1.7 | 12 |  | 17 | 138 |  | 265 | 1660 | 233 | CS(=O)(=O)N1CC[C@H](Nc2ncc3cc(C#N)c(=O)n(C4CCCC4)c3n2)[C@H](F)C1 [Compound No. 363, 8-cyclopentyl-2-((3R,4S)-3-fluoro-1-(methylsulfonyl)piperidin-4-ylamino)-7-oxo-7,8-dihydropyrido[2,3-d]pyrimidine-6-carbonitrile]
34 | 3.4 |  | 28 |  | 1980 | 405 | 1390 | 331 | CS(=O)(=O)N1CCC(Nc2ncc3cc(C#N)c(=O)n(C4CCC4)c3n2)CC1 [Compound No. 368, 8-cyclobutyl-2-((1-(methylsulfonyl)piperidin-4-yl)amino)-7-oxo-7,8-dihydropyrido [2,3-d] pyrimidine-6-carbonitrile]
